Patent US12234224B2, “Pyrimidine and pyridine amine compounds and usage thereof in disease treatment” (Epigen Biosciences, Inc., priority 2021, dated 2025)

Target: T1, Recombinant human p70S6K kinase (Homo sapiens, UniProt P23443)
T1 construct: purchased ThermoFisher Scientific PV3815
Assay: S6K Enzymatic Inhibition Assay (HotSpot kinase assay; called S6K binding assay in Table 2)
Type: biochemical
Settings: IC50 class
Procedure: Enzymatic activity was determined using a commercial HotSpot kinase assay. Recombinant human p70S6K kinase was purchased from ThermoFisher Scientific (cat #PV3815). The substrate S6K/RSK2 peptide 2 was synthesized at Genscript [Piscataway, NJ]. In brief, the substrate was prepared in the reaction buffer [20 mM Hepes (pH 7.5), 10 mM MgCl2, 1 mM EGTA, 0.02% Brij35, 0.02 mg/mL BSA, 0.1 mM Na3VO4, 2 mM DTT, 1% DMSO]. Testing compounds were dissolved in 100% DMSO and a serial dilution was conducted in DMSO. The kinase at final concentration of 3 nM was added into the substrate solution and gently mixed. Test compounds were delivered at the appropriate concentrations into the kinase reaction mixture by Echo550, and incubated for 20 minutes at room temperature. ^33P-ATP (Specific activity 10 μCi/μL) was added into the reaction mixture to initiate the reaction. Assay plates were incubated for 2 hours at room temperature. The radioactivity was detected by filter-binding method. Kinase activity data is expressed as the percent remaining kinase activity in test samples compared to vehicle (DMSO) reactions. IC50 curves were plotted and IC50 values were calculated using the GraphPad Prism 4 program based on a sigmoidal dose-response equation.

T1 sequence (P23443 whole entry): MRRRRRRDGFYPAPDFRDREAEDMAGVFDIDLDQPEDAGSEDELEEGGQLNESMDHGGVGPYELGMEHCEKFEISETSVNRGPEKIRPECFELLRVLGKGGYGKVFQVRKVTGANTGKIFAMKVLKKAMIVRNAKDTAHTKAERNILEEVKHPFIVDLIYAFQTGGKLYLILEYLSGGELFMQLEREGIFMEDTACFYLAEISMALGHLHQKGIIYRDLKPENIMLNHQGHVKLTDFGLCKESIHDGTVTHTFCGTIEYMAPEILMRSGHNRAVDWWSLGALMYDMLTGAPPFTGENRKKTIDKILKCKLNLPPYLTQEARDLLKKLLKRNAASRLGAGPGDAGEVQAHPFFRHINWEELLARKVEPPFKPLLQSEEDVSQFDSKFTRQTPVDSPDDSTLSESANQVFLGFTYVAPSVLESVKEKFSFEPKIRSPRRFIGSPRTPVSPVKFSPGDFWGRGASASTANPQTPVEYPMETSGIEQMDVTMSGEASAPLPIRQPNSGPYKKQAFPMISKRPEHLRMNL

IC50	SMILES
50 to 500 nM	CC(c1cccc(C(F)(F)F)c1)n1cc(-c2ncnc(N)c2-c2ccc(Cl)cc2)cn1 (racemic) [Example 3, (±)-5-(p-Chlorophenyl)-6-(1-{1-[m-(trifluoromethyl)phenyl]ethyl}-1H-pyrazol-4-yl)-4-pyrimidinylamine]
< 50 nM	Nc1ncnc(-c2cnn(C(CO)c3ccccc3)c2)c1-c1ccc(Cl)cc1 (racemic) [Example 5, (±)-2-{4-[6-Amino-5-(p-chlorophenyl)-4-pyrimidinyl]-1H-pyrazol-1-yl}-2-phenylethanol]
< 50 nM	NCC(c1ccccc1)n1cc(-c2ncnc(N)c2-c2ccc(Cl)cc2)cn1 (racemic) [Example 6, (±)-6-[1-(2-Amino-1-phenylethyl)-1H-pyrazol-4-yl]-5-(p-chlorophenyl)-4-pyrimidinamine]
< 50 nM	NC(=O)C(c1ccccc1)n1cc(-c2ncnc(N)c2-c2ccc(Cl)cc2)cn1 (racemic) [Example 8, (±)-{4-[6-Amino-5-(p-chlorophenyl)-4-pyrimidinyl]-1H-pyrazol-1-yl}phenylacetamide]
50 to 500 nM	CN(C)C(=O)C(c1ccccc1)n1cc(-c2ncnc(N)c2-c2ccc(Cl)cc2)cn1 (racemic) [Example 9, (±)-N,N-Dimethyl{4-[6-amino-5-(p-chlorophenyl)-4-pyrimidinyl]-1H-pyrazol-1-yl}phenylacetamide]
< 50 nM	Nc1ncnc(-c2cnn(Cc3ccccc3)c2)c1-c1ccc(Cl)cc1 [Example 1, 6-(1-Benzyl-1H-pyrazol-4-yl)-5-(p-chlorophenyl)-4-pyrimidinylamine]
50 to 500 nM	Cn1cc(-c2ncnc(N)c2-c2ccc(Cl)cc2)cn1 [Example 2, 5-(p-Chlorophenyl)-6-(1-methyl-1H-pyrazol-4-yl)-4-pyrimidinylamine]
< 50 nM	Nc1ncnc(-c2cnn(Cc3ccc(C(F)(F)F)cc3)c2)c1-c1ccc(Cl)cc1 [Example 4, 5-(p-Chlorophenyl)-6-(1-{[p-(trifluoromethyl)phenyl]methyl}-1H-pyrazol-4-yl)-4-pyrimidinylamine]
< 50 nM	C=C(c1ccccc1)n1cc(-c2ncnc(N)c2-c2ccc(Cl)cc2)cn1 [Example 7, 5-(p-Chlorophenyl)-6-[1-(1-phenylethenyl)-1H-pyrazol-4-yl]-4-pyrimidinylamine]
50 to 500 nM	Nc1ncnc(-c2cnn(-c3ccccc3)c2)c1-c1ccc(Cl)cc1 [Example 10, 5-(p-Chlorophenyl)-6-(1-phenyl-1H-pyrazol-4-yl)-4-pyrimidinylamine]
50 to 500 nM	Cc1ccccc1-n1cc(-c2ncnc(N)c2-c2ccc(Cl)cc2)cn1 [Example 11, 5-(p-Chlorophenyl)-6-[1-(o-tolyl)-1H-pyrazol-4-yl]-4-pyrimidinylamine]
500 to 10000 nM	Nc1ncnc(-c2cnn(-c3cccc(Cl)c3)c2)c1-c1ccc(Cl)cc1 [Example 12, 5-(p-Chlorophenyl)-6-[1-(m-chlorophenyl)-1H-pyrazol-4-yl]-4-pyrimidinylamine]
500 to 10000 nM	Nc1ncnc(-c2cnn(-c3cccc(C(F)(F)F)c3)c2)c1-c1ccc(Cl)cc1 [Example 13, 5-(p-Chlorophenyl)-6-{1-[m-(trifluoromethyl)phenyl]-1H-pyrazol-4-yl}-4-pyrimidinylamine]
500 to 10000 nM	Nc1ncnc(-c2cnn(C3CCCCO3)c2)c1-c1ccc(Cl)cc1 (stereo not drawn) [Example 14, 5-(p-Chlorophenyl)-6-[1-(tetrahydro-2H-pyran-2-yl)-1H-pyrazol-4-yl]-4-pyrimidinylamine]
< 50 nM	Nc1ncnc(-c2cnn(Cc3cccc(F)c3)c2)c1-c1ccc(Cl)cc1 [Example 15, 5-(p-Chlorophenyl)-6-{1-[(m-fluorophenyl)methyl]-1H-pyrazol-4-yl}-4-pyrimidinylamine]
< 50 nM	Nc1ncnc(-c2cnn(Cc3ccc(Cl)cc3)c2)c1-c1ccc(Cl)cc1 [Example 16, 5-(p-Chlorophenyl)-6-{1-[(p-chlorophenyl)methyl]-1H-pyrazol-4-yl}-4-pyrimidinylamine]
50 to 500 nM	Nc1ncnc(-c2cnn(Cc3ccccc3C(F)(F)F)c2)c1-c1ccc(Cl)cc1 [Example 17, 5-(p-Chlorophenyl)-6-(1-{[o-(trifluoromethyl)phenyl]methyl}-1H-pyrazol-4-yl)-4-pyrimidinylamine]
< 50 nM	Nc1ncnc(-c2cnn(Cc3ccc(F)cc3)c2)c1-c1ccc(Cl)cc1 [Example 18, 5-(p-Chlorophenyl)-6-{1-[(p-fluorophenyl)methyl]-1H-pyrazol-4-yl}-4-pyrimidinylamine]

IC50	SMILES
< 50 nM	Nc1ncnc(-c2cnn(Cc3ccc(F)cc3F)c2)c1-c1ccc(Cl)cc1 [Example 19, 5-(p-Chlorophenyl)-6-{1-[(2,4-difluorophenyl)methyl]-1H-pyrazol-4-yl}-4-pyrimidinylamine]
< 50 nM	Nc1ncnc(-c2cnn(Cc3ccc(OC(F)(F)F)cc3)c2)c1-c1ccc(Cl)cc1 [Example 20, 5-(p-Chlorophenyl)-6-{1-[(p-trifluoromethoxyphenyl)methyl]-1H-pyrazol-4-yl}-4-pyrimidinylamine]
< 50 nM	Nc1ncnc(-c2cnn(Cc3ccccc3F)c2)c1-c1ccc(Cl)cc1 [Example 21, 5-(p-Chlorophenyl)-6-{1-[(o-fluorophenyl)methyl]-1H-pyrazol-4-yl}-4-pyrimidinylamine]
500 to 10000 nM	Nc1ncnc(-n2cc(C(=O)c3ccccc3)cn2)c1-c1ccc(Cl)cc1 [Example 22, {1-[6-Amino-5-(p-chlorophenyl)-4-pyrimidinyl]-1H-pyrazol-4-yl}phenylmethanone]
50 to 500 nM	Nc1ncnc(-n2cc(Cc3ccccc3)cn2)c1-c1ccc(Cl)cc1 [Example 23, 6-(4-Benzyl-1H-pyrazol-1-yl)-5-(p-chlorophenyl)-4-pyrimidinylamine]
< 50 nM	COc1ccc(-c2c(N)ncnc2-c2cnn(Cc3ccc(C(F)(F)F)cc3)c2)cc1 [Example 24, 5-(p-Methoxyphenyl)-6-(1-{[p-(trifluoromethyl)phenyl]methyl}-1H-pyrazol-4-yl)-4-pyrimidinylamine]
< 50 nM	Nc1ncnc(-c2cnn(Cc3ccc(C(F)(F)F)cc3)c2)c1-c1ccc(F)cc1 [Example 25, 5-(p-Fluorophenyl)-6-(1-{[p-(trifluoromethyl)phenyl]methyl}-1H-pyrazol-4-yl)-4-pyrimidinylamine]
500 to 10000 nM	CS(=O)(=O)c1ccc(-c2c(N)ncnc2-c2cnn(Cc3ccc(C(F)(F)F)cc3)c2)cc1 [Example 26, 5-[p-(Methylsulfonyl)phenyl]-6-(1-{[p-(trifluoromethyl)phenyl]methyl}-1H-pyrazol-4-yl)-4-pyrimidinylamine]
< 50 nM	Nc1ncnc(-c2cnn(Cc3ccc(C(F)(F)F)cc3)c2)c1-c1ccc(Cl)c(F)c1 [Example 27, 5-(4-Chloro-3-fluorophenyl)-6-(1-{[p-(trifluoromethyl)phenyl]methyl}-1H-pyrazol-4-yl)-4-pyrimidinylamine]
500 to 10000 nM	Nc1ncnc(-c2cnn(Cc3ccc(C(F)(F)F)cc3)c2)c1-c1ccc(Cl)c(Cl)c1 [Example 28, 5-(3,4-Dichlorophenyl)-6-(1-{[p-(trifluoromethyl)phenyl]methyl}-1H-pyrazol-4-yl)-4-pyrimidinylamine]
500 to 10000 nM	COc1cc(-c2c(N)ncnc2-c2cnn(Cc3ccc(C(F)(F)F)cc3)c2)ccc1Cl [Example 29, 5-(4-Chloro-3-methoxyphenyl)-6-(1-{[p-(trifluoromethyl)phenyl]methyl}-1H-pyrazol-4-yl)-4-pyrimidinylamine]
500 to 10000 nM	COc1ccc(-c2c(N)ncnc2-c2cnn(Cc3ccc(C(F)(F)F)cc3)c2)cc1Cl [Example 30, 5-(3-Chloro-4-methoxyphenyl)-6-(1-{[p-(trifluoromethyl)phenyl]methyl}-1H-pyrazol-4-yl)-4-pyrimidinylamine]
< 50 nM	Nc1ncnc(-c2cnn(Cc3ccc(C(F)(F)F)cc3)c2)c1-c1ccc(F)c(F)c1 [Example 31, 5-(3,4-Difluorophenyl)-6-(1-{[p-(trifluoromethyl)phenyl]methyl}-1H-pyrazol-4-yl)-4-pyrimidinylamine]
< 50 nM	COc1ccc(-c2c(N)ncnc2-c2cnn(Cc3ccc(C(F)(F)F)cc3)c2)cc1F [Example 32, 5-(3-Fluoro-4-methoxyphenyl)-6-(1-{[p-(trifluoromethyl)phenyl]methyl}-1H-pyrazol-4-yl)-4-pyrimidinylamine]
500 to 10000 nM	COc1cc(-c2c(N)ncnc2-c2cnn(Cc3ccc(C(F)(F)F)cc3)c2)ccc1F [Example 33, 5-(4-Fluoro-3-methoxyphenyl)-6-(1-{[p-(trifluoromethyl)phenyl]methyl}-1H-pyrazol-4-yl)-4-pyrimidinylamine]
500 to 10000 nM	Nc1ncnc(-c2cnn(Cc3ccc(C(F)(F)F)cc3)c2)c1-c1ccc(OC(F)(F)F)cc1 [Example 34, 5-(p-Trifluoromethoxyphenyl)-6-(1-{[p-(trifluoromethyl)phenyl]methyl}-1H-pyrazol-4-yl)-4-pyrimidinylamine]
500 to 10000 nM	Nc1ncnc(-c2cnn(Cc3ccc(C(F)(F)F)cc3)c2)c1-c1ccc2c(c1)OC(F)(F)O2 [Example 35, 5-(2,2-Difluoro-2H-1,3-benzodioxol-5-yl)-6-(1-{[p-(trifluoromethyl)phenyl]methyl}-1H-pyrazol-4-yl)-4-pyrimidinylamine]
500 to 10000 nM	Nc1cc(-c2cnn(Cc3ccc(C(F)(F)F)cc3)c2)ccn1 [Example 36, 4-(1-{[p-(Trifluoromethyl)phenyl]methyl}-1H-pyrazol-4-yl)-2-pyridylamine]
